The values below come from patent publication US8741934B2, “Inhibitors of ion channels” (Pfizer Limited, priority 2007, dated 2014).

Experiment [1] concerns the target T1, hSCN3A sodium channels (Homo sapiens, UniProt Q9NY46).
T1 construct: expressed in transfected cells
Nature of the experiment: hSCN3A electrophysiology, whole-cell patch-clamp or PatchXpress 7000, estimated IC-50 (Table B). It counts as cell-based. The note with it: estimated IC-50; hSCN3A cells, whole-cell patch-clamp or PatchXpress 7000; read-out: SCN3A EIC-50. As to the method: Human Embryonic Kidney (HEK) cells were transfected with an hSCN3A construct using lipofectamine reagent (Invitrogen), using standard techniques. […] Clones were screened for expression using the whole-cell voltage-clamp technique.
HEK cells stably transfected with hSCN3A were maintained in DMEM medium supplemented with 10% heat-inactivated fetal bovine serum and 400 μg/ml G418 sulfate in an incubator at 37° C. with a humidified atmosphere of 10% CO2. […] For electrophysiological studies, cells were removed from the culture flask by brief trypsinization and replated at low density onto glass cover slips. Cells were typically used for electrophysiological experiments within 24 to 72 h after plating.
All recordings were made at room temperature (22-24° C.) using AXOPATCH 200B amplifiers and PCLAMP software (Axon Instruments, Burlingame, Calif.) or PatchXpress 7000 hardware and associated software (Axon Instruments, Burlingame, Calif.).
Current records were acquired at 20 to 50 KHz and filtered at 5 to 10 KHz.
HEK cells stably transfected with hSCN3A were viewed under Hoffman contrast optics and placed in front of an array of flow pipes emitting either control or compound-containing extracellular solutions. All compounds were dissolved in dimethyl sulfoxide to make 10 mM stock solutions, which were then diluted into extracellular solution to attain the final concentrations desired.
The voltage-dependence of inactivation was determined by applying a series of depolarizing prepulses (8 sec long in 10 mV increments) from a negative holding potential. The voltage was then immediately stepped to 0 mV to assess the magnitude of the sodium current. Currents elicited at 0 mV were plotted as a function of prepulse potential to allow estimation of the voltage midpoint of inactivation (V1/2). Cells were then voltage clamped at the empirically determined V1/2.
Compounds were tested for their ability to inhibit hSCN3A sodium channels by activating the channel with a 20 msec voltage step to 0 mV following an 8 second conditioning prepulse to the empirically determined V1/2 (Table B). Compound effect (% inhibition) was determined by difference in current amplitude before and after application of test compounds. […] Inhibition values <20% and >80% were excluded from the calculation.
In some cases electrophysiological assays were conducted with PatchXpress 7000 hardware and associated software (Molecular Devices Corp) (Table B). All assay buffers and solutions were identical to those used in conventional whole-cell voltage clamp experiments described above. hSCN3A cells were grown as above to 50%-80% confluency and harvested by trypsinization. Trypsinized cells were washed and resuspended in extracellular buffer at a concentration of 1×10^6 cells/ml. The onboard liquid handling facility of the PatchXpress was used for dispensing cells and application of test compounds. Determination of the voltage midpoint of inactivation was as described for conventional whole-cell recordings. Cells were then voltage-clamped to the empirically determined V1/2 and current was activated by a 20 msec voltage step to 0 mV.

Experiment [2] addresses T1, hSCN3A sodium channels. Nature of the experiment: hSCN3A electrophysiology, Ionworks Quattro automated platform (Table C). Format: cell-based. The note with it: for inhibition at 3 µM: read-out: SCN3A % INHIB HTS IWQ 3 μM; for inhibition at 10 µM: read-out: SCN3A % INHIB HTS IWQ 10 μM; for SCN3A INHIB INACT DRC EP IWQ EMAX: Emax of dose-response curve, inactivated state; for IC50: read-out: SCN3A IWQ IC-50. In a few lines:
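HEK cells stably expressing hSCN3A were recorded in perforated-patch mode with 100 μg/ml amphotericin on Ionworks Quattro. The protocol used an inactivating step, a brief hyperpolarized partial recovery, then a depolarized test step. Inhibition was taken from current amplitude before versus after compound addition.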

T1 sequence (Q9NY46 whole entry): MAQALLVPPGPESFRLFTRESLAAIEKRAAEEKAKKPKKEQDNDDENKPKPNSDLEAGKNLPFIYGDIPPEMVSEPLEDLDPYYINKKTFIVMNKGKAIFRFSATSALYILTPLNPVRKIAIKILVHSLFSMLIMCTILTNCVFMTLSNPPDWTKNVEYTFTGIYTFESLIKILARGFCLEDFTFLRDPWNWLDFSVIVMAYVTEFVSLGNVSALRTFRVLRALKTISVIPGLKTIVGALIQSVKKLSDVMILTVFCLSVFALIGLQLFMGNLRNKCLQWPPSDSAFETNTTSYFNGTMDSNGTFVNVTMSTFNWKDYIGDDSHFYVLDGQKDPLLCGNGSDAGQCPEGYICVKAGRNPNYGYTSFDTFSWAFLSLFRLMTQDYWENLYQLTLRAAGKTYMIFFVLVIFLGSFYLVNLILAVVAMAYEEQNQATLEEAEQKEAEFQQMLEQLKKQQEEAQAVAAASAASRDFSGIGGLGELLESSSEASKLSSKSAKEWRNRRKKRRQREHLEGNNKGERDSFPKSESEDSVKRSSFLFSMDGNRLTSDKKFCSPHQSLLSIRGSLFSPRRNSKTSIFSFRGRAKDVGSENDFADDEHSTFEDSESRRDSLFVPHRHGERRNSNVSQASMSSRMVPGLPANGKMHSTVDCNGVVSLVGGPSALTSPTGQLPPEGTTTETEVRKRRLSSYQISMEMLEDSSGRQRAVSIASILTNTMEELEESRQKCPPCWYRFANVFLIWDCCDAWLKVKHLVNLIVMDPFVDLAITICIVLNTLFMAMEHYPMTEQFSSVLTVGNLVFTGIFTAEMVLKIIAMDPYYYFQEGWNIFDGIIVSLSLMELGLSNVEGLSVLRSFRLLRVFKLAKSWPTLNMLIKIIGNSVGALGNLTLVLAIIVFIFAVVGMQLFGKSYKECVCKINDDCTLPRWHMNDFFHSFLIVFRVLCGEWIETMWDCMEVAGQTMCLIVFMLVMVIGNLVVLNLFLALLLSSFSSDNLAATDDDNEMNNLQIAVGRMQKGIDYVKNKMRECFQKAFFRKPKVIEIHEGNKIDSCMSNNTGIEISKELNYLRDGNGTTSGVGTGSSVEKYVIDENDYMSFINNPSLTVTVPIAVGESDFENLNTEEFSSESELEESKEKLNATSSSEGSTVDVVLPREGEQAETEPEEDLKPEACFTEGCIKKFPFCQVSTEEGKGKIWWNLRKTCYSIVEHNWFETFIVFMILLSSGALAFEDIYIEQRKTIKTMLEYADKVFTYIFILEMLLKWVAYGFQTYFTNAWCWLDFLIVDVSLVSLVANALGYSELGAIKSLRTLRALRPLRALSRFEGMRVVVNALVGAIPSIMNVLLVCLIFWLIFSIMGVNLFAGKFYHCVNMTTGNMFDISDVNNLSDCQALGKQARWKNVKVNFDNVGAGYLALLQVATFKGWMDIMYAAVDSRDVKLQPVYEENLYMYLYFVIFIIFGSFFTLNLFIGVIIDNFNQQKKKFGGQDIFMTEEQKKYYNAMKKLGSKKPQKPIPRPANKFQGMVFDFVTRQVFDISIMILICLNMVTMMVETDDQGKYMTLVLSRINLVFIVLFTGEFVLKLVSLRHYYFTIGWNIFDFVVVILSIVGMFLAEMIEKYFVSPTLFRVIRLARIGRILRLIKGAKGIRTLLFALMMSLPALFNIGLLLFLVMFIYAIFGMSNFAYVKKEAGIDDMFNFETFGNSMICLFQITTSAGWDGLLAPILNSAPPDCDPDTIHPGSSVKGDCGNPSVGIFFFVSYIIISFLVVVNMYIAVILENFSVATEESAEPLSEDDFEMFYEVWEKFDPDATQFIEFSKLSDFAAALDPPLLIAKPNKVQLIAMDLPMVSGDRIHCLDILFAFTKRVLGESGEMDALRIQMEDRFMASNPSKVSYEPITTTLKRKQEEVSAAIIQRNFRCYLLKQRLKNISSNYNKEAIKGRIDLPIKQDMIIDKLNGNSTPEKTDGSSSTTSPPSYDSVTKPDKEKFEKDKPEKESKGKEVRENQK

Take “4-[(1,3-Thiazol-2-ylamino)sulfonyl]-N-(4-isopropyloxybenzyl)benzamide [Example 69]”: the IC50 at hSCN3A sodium channels [1] is 770 nM.
Take `O=C(NCc1ccc(C(F)(F)F)cc1)c1ccc(S(=O)(=O)Nc2ncc(Cl)s2)cc1` [Example 1, 4-{[(5-Chloro-1,3-thiazol-2-yl)amino]sulfonyl}-N-[4-(trifluoromethyl)benzyl]benzamide]: the IC50 at hSCN3A sodium channels [1] is 70 nM.
Same read-out and setting: as for `Cn1ccc(NS(=O)(=O)c2ccc(C(=O)NCc3ccc(C(F)(F)F)cc3)cc2)n1` [Example 2, 4-{[(1-Methyl-1H-pyrazol-3-yl)amino]sulfonyl}-N-[4-(trifluoromethyl)benzyl]benzamide], the figure is over 1000 nM.
Consider `O=C(NCc1ccc(C(F)(F)F)cc1)c1ccc(S(=O)(=O)Nc2nc(C(F)(F)F)cs2)cc1` [Example 4, N-[4-(Trifluoromethyl)benzyl]-4-({[4-(trifluoromethyl)-1,3-thiazol-2-yl]amino}sulfonyl)benzamide], for which the IC50 on hSCN3A sodium channels [1] was 2530 nM.
Turning to `Cc1nsc(NS(=O)(=O)c2ccc(C(=O)NCc3ccc(C(F)(F)F)cc3)cc2)n1` [Example 6, 4-{[(3-Methyl-1,2,4-thiadiazol-5-yl)amino]sulfonyl}-N-[4-(trifluoromethyl)benzyl]benzamide], the IC50 on hSCN3A sodium channels [1] is 1110 nM.
With `O=C(NCc1ccc(C(F)(F)F)cc1)c1ccc(S(=O)(=O)Nc2ccon2)cc1` [Example 7, 4-[(Isoxazol-3-ylamino)sulfonyl]-N-[4-(trifluoromethyl)benzyl]benzamide], the IC50 at hSCN3A sodium channels [1] was 5870 nM.
Regarding `Cn1cnc(NS(=O)(=O)c2ccc(C(=O)NCc3ccc(C(F)(F)F)cc3)cc2)n1` [Example 9, 4-{[(1-Methyl-1H-1,2,4-triazol-3-yl)amino]sulfonyl}-N-[4-(trifluoromethyl)benzyl]benzamide], on hSCN3A sodium channels [1], the IC50 was over 10000 nM.
With `Cn1cc(NS(=O)(=O)c2ccc(C(=O)NCc3ccc(C(F)(F)F)cc3)cc2)cn1` [Example 10, 4-{[(1-Methyl-1H-pyrazol-4-yl)amino]sulfonyl}-N-[4-(trifluoromethyl)benzyl]benzamide], the IC50 on hSCN3A sodium channels [1] is 1510 nM.
`Cc1nnc(NS(=O)(=O)c2ccc(C(=O)NCc3ccc(C(F)(F)F)cc3)cc2)s1` [Example 11, 4-{[(5-Methyl-1,3,4-thiadiazol-2-yl)amino]sulfonyl}-N-[4-(trifluoromethyl)benzyl]benzamide]: the IC50 on hSCN3A sodium channels [1] was 2560 nM.
Consider `Cc1noc(NS(=O)(=O)c2ccc(C(=O)NCc3ccc(C(F)(F)F)cc3)cc2)c1C` [Example 12, 4-{[(3,4-Dimethylisoxazol-5-yl)amino]sulfonyl}-N-[4-(trifluoromethyl)benzyl]benzamide], for which, on hSCN3A sodium channels [1], the IC50 is 29600 nM.
Turning to `O=C(c1ccc(S(=O)(=O)Nc2nccs2)cc1)N1CCC(COCC2CC2)C1` (stereo not shown) [Example 269, 4-({3-[(Cyclopropylmethoxy)methyl]pyrrolidin-1-yl}carbonyl)-N-1,3-thiazol-2-yl-benzenesulfonamide], the inhibition at 3 µM on hSCN3A sodium channels [2] (3 μM compound) came to 0.37%. Moreover, at hSCN3A sodium channels [2] (10 μM compound), the inhibition at 10 µM came to 16.5%.
On to `COc1ccc(CC2CCCN(C(=O)c3ccc(S(=O)(=O)Nc4nccs4)cc3)C2)cc1` (stereo not shown) [Example 270, 4-{[3-(4-Methoxybenzyl)piperidin-1-yl]carbonyl}-N-1,3-thiazol-2-yl-benzenesulfonamide], for which the inhibition at 3 µM on hSCN3A sodium channels [2] (3 μM compound) turned out to be 19.2%. On hSCN3A sodium channels [2] (10 μM compound), the inhibition at 10 µM turned out to be 45.7%. Moreover, at hSCN3A sodium channels [2], the “SCN3A INHIB INACT DRC EP IWQ EMAX” value is 53.7 and the IC50 came out at 27700 nM.
As for `O=C(c1ccc(S(=O)(=O)Nc2nccs2)cc1)N1CCCC(COc2cc(F)cc(F)c2)C1` (stereo not shown) [Example 271, 4-({3-[(3,5-Difluorophenoxy)methyl]piperidin-1-yl}carbonyl)-N-1,3-thiazol-2-yl-benzenesulfonamide], on hSCN3A sodium channels [2] (3 μM compound), the inhibition at 3 µM was determined as 35.8%. Moreover, on hSCN3A sodium channels [2] (10 μM compound), the inhibition at 10 µM is 41.4%. Moreover, on hSCN3A sodium channels [2], the “SCN3A INHIB INACT DRC EP IWQ EMAX” value came to 52.4 and the IC50 worked out at 26400 nM.
As for `O=C(c1ccc(S(=O)(=O)Nc2nccs2)cc1)N1CCCC(Cc2cncnc2)C1` (stereo not shown) [Example 272, 4-{[3-(Pyrimidin-5 ylmethyl)piperidin-1-yl]carbonyl}-N-1,3-thiazol-2-yl-benzenesulfonamide], on hSCN3A sodium channels [2] (3 μM compound), the inhibition at 3 µM was determined as 1.88%. The inhibition at 10 µM at hSCN3A sodium channels [2] (10 μM compound) stood at 8.31%.
In the case of `COc1cccc(C2CCCN2C(=O)c2ccc(S(=O)(=O)Nc3nccs3)cc2)c1` (stereo not shown) [Example 273, 4-{[2-(3-Methoxyphenyl)pyrrolidin-1-yl]carbonyl}-N-1,3-thiazol-2-yl-benzenesulfonamide], at hSCN3A sodium channels [2] (3 μM compound), the inhibition at 3 µM is 4.82%. Further, the inhibition at 10 µM at hSCN3A sodium channels [2] (10 μM compound) came to 2.72%.
Consider `CN(CC1Cc2ccccc2O1)C(=O)c1ccc(S(=O)(=O)Nc2nccs2)cc1` (stereo not shown) [Example 274, N-(2,3-dihydro-1-benzofuran-2-ylmethyl)-N-methyl-4-[(1,3-thiazol-2-ylamino)sulfonyl]benzamide], for which, on hSCN3A sodium channels [2] (3 μM compound), the inhibition at 3 µM is 14.6%. For the same molecule, the inhibition at 10 µM at hSCN3A sodium channels [2] (10 μM compound) was determined as 19.6%.
In the case of `COc1cccc(C2CCCCCN2C(=O)c2ccc(S(=O)(=O)Nc3nccs3)cc2)c1` (stereo not shown) [Example 275, 4-{[2-(3-Methoxyphenyl)azepan-1-yl]carbonyl}-N-1,3-thiazol-2-yl-benzenesulfonamide], the inhibition at 3 µM on hSCN3A sodium channels [2] (3 μM compound) amounted to 9.93%. The inhibition at 10 µM at hSCN3A sodium channels [2] (10 μM compound) was -0.2%.
For `Cc1cccc(CN2CCN(C(=O)c3ccc(S(=O)(=O)Nc4nccs4)cc3)CC2=O)c1` [Example 276, 4-{[4-(3-Methylbenzyl)-3-oxopiperazin-1-yl]carbonyl}-N-1,3-thiazol-2-yl-benzenesulfonamide], the inhibition at 3 µM on hSCN3A sodium channels [2] (3 μM compound) came to 18.1%. For the same molecule, the inhibition at 10 µM on hSCN3A sodium channels [2] (10 μM compound) worked out at 20.6%.
With `N#Cc1cccc(OCC2CCCN(C(=O)c3ccc(S(=O)(=O)Nc4nccs4)cc3)C2)c1` (stereo not shown) [Example 278, 4-({3-[(3-Cyanophenoxy)methyl]piperidin-1-yl}carbonyl)-N-1,3-thiazol-2-yl-benzenesulfonamide], the inhibition at 3 µM on hSCN3A sodium channels [2] (3 μM compound) came out at 25.4%. Besides, the inhibition at 10 µM on hSCN3A sodium channels [2] (10 μM compound) is 30%.
For `COc1ccc(C2CC(CO)CN2C(=O)c2ccc(S(=O)(=O)Nc3nccs3)cc2)cc1` (stereo not shown) [Example 280, 4-{[4-(Hydroxymethyl)-2-(4-methoxyphenyl)pyrrolidin-1-yl]carbonyl}-N-1,3-thiazol-2-yl-benzenesulfonamide], the inhibition at 3 µM at hSCN3A sodium channels [2] (3 μM compound) was determined as 13.2%. Besides, the inhibition at 10 µM on hSCN3A sodium channels [2] (10 μM compound) came out at 17%.
Regarding `O=C(c1ccc(S(=O)(=O)Nc2nccs2)cc1)N1CCCC1c1ccccc1F` (stereo not shown) [Example 281, 4-{[2-(2-Fluorophenyl)pyrrolidin-1-yl]carbonyl}-N-1,3-thiazol-2-yl-benzenesulfonamide], the inhibition at 3 µM at hSCN3A sodium channels [2] (3 μM compound) is 10.2%. The inhibition at 10 µM at hSCN3A sodium channels [2] (10 μM compound) came to 28.9%.
In the same order, the values of `O=C(c1ccc(S(=O)(=O)Nc2nccs2)cc1)N1CCC(Cc2ccccc2)C1` (stereo not shown) [Example 282, 4-[(3-Benzylpyrrolidin-1-yl)carbonyl]-N-1,3-thiazol-2-yl-benzenesulfonamide] are 29.1% and 11.4%.
The corresponding values for `O=C(c1ccc(S(=O)(=O)Nc2nccs2)cc1)N1CCCC1c1ccccn1` (stereo not shown) [Example 283, 4-[(2-Pyridin-2-ylpyrrolidin-1-yl)carbonyl]-N-1,3-thiazol-2-ylbenzenesulfonamide] are -1.98% and 0.98%.
As to `O=C(NCc1cccc(OC(F)(F)F)c1)c1ccc(S(=O)(=O)Nc2nccs2)c(Cl)c1` [Example 285, 3-Chloro-4-[(1,3-thiazol-2-ylamino)sulfonyl]-N-[3-(trifluoromethoxy)benzyl]benzamide], the inhibition at 3 µM at hSCN3A sodium channels [2] (3 μM compound) is 15.1%. For the same molecule, the inhibition at 10 µM at hSCN3A sodium channels [2] (10 μM compound) worked out at 39.1%.
As for `O=C(NCc1cccc(C(F)(F)F)c1)c1ccc(S(=O)(=O)Nc2nccs2)c(Cl)c1` [Example 288, 3-Chloro-4-[(1,3-thiazol-2-ylamino)sulfonyl]-N-[3-(trifluoromethyl)benzyl]benzamide], at hSCN3A sodium channels [2] (3 μM compound), the inhibition at 3 µM worked out at 4.38%. Further, the inhibition at 10 µM on hSCN3A sodium channels [2] (10 μM compound) came out at 13.4%.
Regarding “N-[1-(3-methylbenzyl)cyclopropyl] 4-[(1,3-thiazol-2-ylamino)sulfonyl]benzamide [Example 159]”, the “SCN3A % INHIB HTS IWQ 3 μM” value on hSCN3A sodium channels [2] (3 μM compound) turned out to be 28.7%. Besides, the “SCN3A % INHIB HTS IWQ 10 μM” value at hSCN3A sodium channels [2] (10 μM compound) was 35.85%.
